The target of experiment [1] is T1, Urokinase-type plasminogen activator (Homo sapiens, UniProt P00749). The experiment in a line: Compound was tested for the rate constant of deacylation against Urokinase-type plasminogen activator.
Experiment [2] deals with T1, Urokinase-type plasminogen activator. Description: Compound was tested for the rate constant of deacylation against the enzyme Urokinase-type plasminogen activator. The following applies: read-out: koff (s-1).
The target is the same in experiment [3]. The experiment in a line: Compound was tested for the rate constant of deacylation against Urokinase-type plasminogen activator.
The next experiment concerns the target T2, Serine protease 1 (Bos taurus, UniProt P00760).
T2 sequence (P00760 whole entry): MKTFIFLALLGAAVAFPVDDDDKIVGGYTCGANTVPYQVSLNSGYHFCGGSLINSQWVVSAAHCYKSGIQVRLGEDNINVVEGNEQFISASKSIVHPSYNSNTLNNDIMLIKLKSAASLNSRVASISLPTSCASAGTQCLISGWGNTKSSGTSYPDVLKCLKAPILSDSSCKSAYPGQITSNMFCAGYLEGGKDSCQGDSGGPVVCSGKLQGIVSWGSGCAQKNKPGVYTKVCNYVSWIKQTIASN
The experiment in a line: Compound was tested for the rate constant of deacylation against the enzyme trypsin.

As usually defined, the koff is the first-order rate constant of dissociation.

With `NC(N)=Nc1ccc(C2C/C(=C/I)OC(=O)C2NC(=O)c2ccccc2)cc1` (stereo not given), the koff in experiment [1] and in experiment [2] was 1.3e-05 s⁻¹ throughout. Take `C=C1CC(c2ccc(N=C(N)N)cc2)C(NC(=O)c2ccccc2)C(=O)O1` (stereo not given): the koff in experiment [3] came to 3.3e-05 s⁻¹; on Serine protease 1, 0.00025 s⁻¹. `NC(N)=Nc1ccc(C2CC(=O)O/C(=C\I)C2)cc1` (stereo not given) showed a koff at Serine protease 1 of 0.00033 s⁻¹.

Values taken from BindingDB's records for doi:10.1021/jm00101a006 (University of Illinois, 1992).
